In general, melting point refers to the temperature of the solid-liquid transition.

Structures are written as SMILES. Bounds are passed on as bounds.

The values that follow come from patent publication US8338422B2, “Indolin-2-ones and aza-indolin-2-ones” (Janssen Pharmaceutica NV, priority 2007, dated 2012).

Data set [1] concerns HT-29. Nature of the data set: Cellular proliferation assay (Alamar blue), HT-29. Conditions: Homo sapiens, HT-29 cells, 72 hours with compound, 10% FCS, read-out: pIC50 HT-29 (converted). Format: cell-based. On the procedure: (§1) […] functional properties of these compounds was tested in cellular proliferation assays on a panel of different cell lines in the presence of 10% FCS serum (37° C. and 5% (v/v) CO2). In a first step these cells were seeded and incubated for 24 hours in the absence of compound. In the second step the cells were incubated for 72 hours with the compounds to be tested for 72 hours. The viable cell number was finally assessed in a standard Alamar blue cell viability assay.
(§2) The viable cell number was assessed by incubation for either 4 h (HCT-116, H1299, H460) 6 h (SKOV3, HT29, U87-MG, Colo205) or 24 h (A2780, PC3, MDA-MB-231, A549, MCF-7) with Alamar blue (Resazurin 9 μg/ml, K-Ferrocyanide 90 μM K-Ferricyanide 90 μM) and the converted fluorescent product was quantified on a fluorescent plate readed (544 nm/590 nm). Effect of the compounds is calculated as of on control cells.
On the technique in general: Resazurin is reduced to fluorescent resorufin, in cell work by metabolically active cells.

Data set [2] relates to SK-N-SH. In words: Cellular proliferation assay (Alamar blue), SK-N-SH. The class given is cell-based. As to conditions: Homo sapiens, SK-N-SH cells, 72 hours with compound, 10% FCS, read-out: pIC50 SK-N-SH (converted). How it is done:
as §1, §2

For data set [3], the system named is HCT-116. In words: Cellular proliferation assay (Alamar blue), HCT-116. The class given is cell-based. As to conditions: Homo sapiens, HCT-116, 72 h, HCT-116 cells, 72 hours with compound, 10% FCS, read-out: pIC50 HCT-116 (converted). A digest of the protocol:
(§3)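 Proliferation was assessed over 72 h of compound treatment, following 24 h of seeding without compound, under 10% FCS, 37° C. and 5% CO2. Fluorescent resazurin product was measured and compared with control cells.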

For data set [4], the system named is Colo205. Nature of the data set: Cellular proliferation assay (Alamar blue), Colo205. Format: cell-based. Conditions: Homo sapiens, COLO 205, Colo205 cells, 72 hours with compound, 10% FCS, read-out: pIC50 Colo205 (converted). How it is done:
as §1, §2

Data set [5] addresses PLK4 (h) (Homo sapiens, UniProt O00444). Nature of the data set: PLK-4 human kinase assay (SPA). The class given is biochemical. As to conditions: read-out: PLK4 pIC50 (converted). A digest of the protocol: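 Radiometric readout: 33P-labelled peptide captured on streptavidin SPA beads after EDTA stop, imaged by Leadseeker. Reaction ran 60 min at room temperature in Hepes pH 8.0 buffer. It contained 1 μM ATP with 2 nM [γ-33P]ATP, 10 μM biotinylated peptide and PLK4 (h) at 19 μg/ml.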

The test system of data set [6] is MCF-7. In words: Cellular proliferation assay (Alamar blue), MCF-7. The class given is cell-based. Conditions: Homo sapiens, MCF7, MCF-7 cells, 72 hours with compound, 10% FCS, read-out: pIC50 MCF-7 (converted). On the procedure: as §1, §2
Data set [7] relates to DU-145. In words: Cellular proliferation assay (Alamar blue), DU-145. The class given is cell-based. As to conditions: Homo sapiens, DU-145 cells, 72 hours with compound, 10% FCS, read-out: pIC50 DU-145 (converted). On the procedure: as §1, §2
Data set [8] concerns A431. Nature of the data set: Cellular proliferation assay (Alamar blue), A431. As to conditions: Homo sapiens, A-431, A431 cells, 72 hours with compound, 10% FCS, read-out: pIC50 A431 (converted). The class given is cell-based. On the procedure:
as §1, §2

In data set [9] the test system is A549. In words: Cellular proliferation assay (Alamar blue), A549. As to conditions: Homo sapiens, A549 cells, 72 hours with compound, 10% FCS, read-out: pIC50 A549 (converted). The class given is cell-based. How it is done: as §1, §2
The test system of data set [10] is SKOV3. In words: Cellular proliferation assay (Alamar blue), SKOV3. Format: cell-based. As to conditions: Homo sapiens, SK-OV-3, SKOV3 cells, 72 hours with compound, 10% FCS, read-out: pIC50 SKOV3 (converted). How it is done: as §1, §2
Data set [11] concerns the target AuroraB (h) (Homo sapiens, UniProt Q96GD4). Nature of the data set: Aurora-B human kinase assay (SPA). The class given is biochemical. Conditions: read-out: AuroraB pIC50 (converted). A digest of the protocol:
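Scintillation proximity assay: AuroraB (h) at 0.5 μg/ml with 3 μM biotinylated peptide, 0.5 μM ATP and 2.2 nM [γ-33P]ATP in 60 mM Hepes pH 7.5, 3 mM MgCl2, 3 mM MnCl2, 2 mM DTT. 60 min at room temperature, EDTA stop, streptavidin PVT beads read on Leadseeker.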

Data set [12] relates to PC-3. Nature of the data set: Cellular proliferation assay (Alamar blue), PC-3. The class given is cell-based. Conditions: Homo sapiens, PC-3, 72 h, PC-3 cells, 72 hours with compound, 10% FCS, read-out: pIC50 PC-3 (converted). A digest of the protocol: as §3
The test system of data set [13] is H460. In words: Cellular proliferation assay (Alamar blue), H460. Conditions: Homo sapiens, NCI-H460, H460 cells, 72 hours with compound, 10% FCS, read-out: pIC50 H460 (converted). The class given is cell-based. On the procedure:
as §1, §2

Data set [14] relates to H1299. Nature of the data set: Cellular proliferation assay (Alamar blue), H1299. The class given is cell-based. Conditions: Homo sapiens, NCI-H1299, 72 h, H1299 cells, 72 hours with compound, 10% FCS, read-out: pIC50 H1299 (converted). A digest of the protocol:
as §3

Data set [15] concerns MDA/MB231. Nature of the data set: Cellular proliferation assay (Alamar blue), MDA/MB231. The class given is cell-based. As to conditions: Homo sapiens, MDA-MB-231, 72 h, MDA/MB231 cells, 72 hours with compound, 10% FCS, read-out: pIC50 MDA/MB231 (converted). A digest of the protocol: as §3
Data set [16] concerns the target CDK1/CyclinB (h) (Homo sapiens, UniProt P06493). In words: CDK1/CyclinB human kinase assay (FRET). Format: biochemical. As to conditions: read-out: CDK1 pIC50 (converted). A digest of the protocol:
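Z'-LYTE FRET format: 0.2 μg/ml enzyme with 2 μM Ser/Thr peptide 12 and 10 μM ATP in 50 mM Hepes pH 7.5, 10 mM MgCl2, 1 mM EGTA, 0.01% Brij-35, 60 min at room temperature. Protease development 60 min; coumarin/fluorescein emission ratio (460/538 nm, excitation 390 nm) reports phosphorylation.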

The target of data set [17] is GSK3β (h) (Homo sapiens, UniProt P49841). Nature of the data set: GSK-3β human kinase assay (SPA). The class given is biochemical. As to conditions: read-out: GSK3B pIC50 (converted). A digest of the protocol: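 Radiometric SPA read-out: after EDTA stop, biotinylated 33P-labelled peptide bound streptavidin PVT beads and was imaged on Leadseeker. Reaction: 60 min, room temperature, GSK3β (h) at 1 μg/ml, 1 μM substrate peptide, 1 μM ATP with 2 nM [γ-33P]ATP, Tris pH 7.4/MgCl2/DTT buffer.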
GSK3β (h), sequence (P49841 whole entry): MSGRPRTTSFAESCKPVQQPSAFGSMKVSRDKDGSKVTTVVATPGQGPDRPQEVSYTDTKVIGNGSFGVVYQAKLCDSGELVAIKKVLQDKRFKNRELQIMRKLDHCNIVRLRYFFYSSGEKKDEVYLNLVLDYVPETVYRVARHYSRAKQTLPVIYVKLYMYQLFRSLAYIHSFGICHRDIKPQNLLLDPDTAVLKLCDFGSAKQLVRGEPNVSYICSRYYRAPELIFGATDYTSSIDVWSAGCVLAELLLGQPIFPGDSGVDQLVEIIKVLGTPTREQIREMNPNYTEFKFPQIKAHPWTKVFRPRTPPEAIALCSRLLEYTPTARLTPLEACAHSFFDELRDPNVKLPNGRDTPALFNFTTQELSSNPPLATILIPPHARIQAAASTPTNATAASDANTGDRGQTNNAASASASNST

In data set [18] the test system is U87MG. In words: Cellular proliferation assay (Alamar blue), U87MG. Format: cell-based. As to conditions: Homo sapiens, U-87 MG, 72 h, U87MG cells, 72 hours with compound, 10% FCS, read-out: pIC50 U87MG (converted). A digest of the protocol:
as §3

Data set [19] relates to A2780. In words: Cellular proliferation assay (Alamar blue), A2780. The class given is cell-based. Conditions: Homo sapiens, A2780, 72 h, A2780 cells, 72 hours with compound, 10% FCS, read-out: pIC50 A2780 (converted). A digest of the protocol:
as §3

PLK4 (h), sequence (O00444 whole entry): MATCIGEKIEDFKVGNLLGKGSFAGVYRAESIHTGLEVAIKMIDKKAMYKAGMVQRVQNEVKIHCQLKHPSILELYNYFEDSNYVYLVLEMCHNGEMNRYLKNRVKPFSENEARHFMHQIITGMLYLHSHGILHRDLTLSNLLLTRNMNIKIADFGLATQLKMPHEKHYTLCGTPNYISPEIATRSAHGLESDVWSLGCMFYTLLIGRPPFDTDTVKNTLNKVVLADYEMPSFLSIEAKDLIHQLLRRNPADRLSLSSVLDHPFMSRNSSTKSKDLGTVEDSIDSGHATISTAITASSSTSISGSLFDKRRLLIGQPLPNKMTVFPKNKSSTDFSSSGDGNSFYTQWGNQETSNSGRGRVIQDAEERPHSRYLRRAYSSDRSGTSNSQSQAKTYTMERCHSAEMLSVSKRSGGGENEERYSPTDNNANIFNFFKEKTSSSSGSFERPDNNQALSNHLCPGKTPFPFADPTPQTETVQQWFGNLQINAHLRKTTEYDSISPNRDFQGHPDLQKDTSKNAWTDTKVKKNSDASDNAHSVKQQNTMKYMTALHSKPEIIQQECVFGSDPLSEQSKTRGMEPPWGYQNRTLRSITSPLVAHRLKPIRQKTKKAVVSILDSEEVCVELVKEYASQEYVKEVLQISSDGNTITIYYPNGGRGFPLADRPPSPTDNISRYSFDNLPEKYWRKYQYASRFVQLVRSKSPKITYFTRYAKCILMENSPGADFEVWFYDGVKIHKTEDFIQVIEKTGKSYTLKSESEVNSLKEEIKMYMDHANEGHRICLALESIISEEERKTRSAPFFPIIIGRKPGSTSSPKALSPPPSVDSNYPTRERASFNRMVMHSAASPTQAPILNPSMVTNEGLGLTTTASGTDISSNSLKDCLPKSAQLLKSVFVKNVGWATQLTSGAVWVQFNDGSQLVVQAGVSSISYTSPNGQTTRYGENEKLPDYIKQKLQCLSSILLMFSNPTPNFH
AuroraB (h), sequence (Q96GD4 whole entry): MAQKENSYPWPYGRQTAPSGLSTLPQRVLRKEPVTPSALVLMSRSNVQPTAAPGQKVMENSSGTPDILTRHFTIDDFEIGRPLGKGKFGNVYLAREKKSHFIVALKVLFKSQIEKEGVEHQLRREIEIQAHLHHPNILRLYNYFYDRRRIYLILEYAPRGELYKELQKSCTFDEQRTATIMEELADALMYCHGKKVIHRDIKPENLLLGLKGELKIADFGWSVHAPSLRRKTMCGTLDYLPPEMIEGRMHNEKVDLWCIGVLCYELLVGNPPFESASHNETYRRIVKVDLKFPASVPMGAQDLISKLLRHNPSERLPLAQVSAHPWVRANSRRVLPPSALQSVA
CDK1/CyclinB (h), sequence (P06493 whole entry): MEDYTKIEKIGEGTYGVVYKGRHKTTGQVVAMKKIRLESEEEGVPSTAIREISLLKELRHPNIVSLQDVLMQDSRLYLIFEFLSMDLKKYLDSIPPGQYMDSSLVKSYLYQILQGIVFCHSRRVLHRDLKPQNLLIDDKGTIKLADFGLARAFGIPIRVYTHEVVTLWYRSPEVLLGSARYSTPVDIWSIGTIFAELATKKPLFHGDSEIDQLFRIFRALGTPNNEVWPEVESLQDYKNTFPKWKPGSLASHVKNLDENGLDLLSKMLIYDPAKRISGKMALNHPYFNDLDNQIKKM
CDK1/CyclinB (h), sequence (P14635 whole entry partner): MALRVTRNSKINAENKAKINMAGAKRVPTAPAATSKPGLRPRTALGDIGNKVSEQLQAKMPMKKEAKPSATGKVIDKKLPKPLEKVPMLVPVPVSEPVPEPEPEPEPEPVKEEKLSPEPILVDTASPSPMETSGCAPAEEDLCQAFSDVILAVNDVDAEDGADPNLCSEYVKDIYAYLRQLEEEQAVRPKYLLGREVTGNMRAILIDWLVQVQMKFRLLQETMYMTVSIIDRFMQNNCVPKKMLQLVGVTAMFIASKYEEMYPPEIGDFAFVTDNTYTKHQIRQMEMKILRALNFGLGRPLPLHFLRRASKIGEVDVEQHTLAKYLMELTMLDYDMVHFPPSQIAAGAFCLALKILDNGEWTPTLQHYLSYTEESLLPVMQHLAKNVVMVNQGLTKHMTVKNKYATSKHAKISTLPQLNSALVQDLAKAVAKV

Turning to `O=C1Nc2ncnc3c2C1=CNc1ccc(c(Cl)c1)OCCCCCC(=O)N1CCN3CC1` (mixture of isomers) [Compound 14], the IC50 in [1], in [2], in data set [3], in data set [4], in data set [5] and in [6] was greater than 10 µM throughout. Besides, the IC50 in [7], in data set [8], in data set [9], in data set [10], in [11] and in data set [12] was greater than 10 µM throughout. The IC50 in data set [13], in data set [14] and in data set [15] was greater than 10 µM throughout.

The compound `CN1CCCC(=O)NCC#Cc2cccc3c2/C(=C/Nc2cccc(c2)S(=O)(=O)N(C)CC1=O)C(=O)N3` [Compound 3] registered a melting point greater than 240 °C. The IC50 in data set [16] was greater than 10 µM. Further, in [5], the IC50 is 3.16 µM. In addition, in [17], the IC50 was 1.86 µM. In addition, the IC50 in data set [11] is greater than 10 µM.

`CN1CC(=O)N(CCN2CCOCC2)CCC(=O)NCC#Cc2cccc3c2/C(=C/Nc2cccc(c2)S1(=O)=O)C(=O)N3` [Compound 5] returned a melting point greater than 240 °C. The IC50 in data set [16] was greater than 10 µM. Moreover, in [5], the IC50 was 4.17 µM. The IC50 in data set [17] was 8.13 µM. The IC50 in data set [11] is 8.32 µM.

On to `O=C1Nc2ncnc3c2/C1=C/Nc1ccc(c(Cl)c1)OCCCCCCC(=O)N1CCN3CC1` [Compound 20], for which the IC50 was greater than 10 µM in data set [1]; 6.61 µM in data set [2]; greater than 10 µM in data set [3]; 7.76 µM in data set [4]; greater than 10 µM in data set [6]; greater than 10 µM in data set [7]. For the same compound, the IC50 in [8], in data set [9], in data set [10], in data set [11], in data set [12] and in data set [13] was greater than 10 µM each time. Also, the IC50 in data set [14] and in data set [15] was greater than 10 µM in each case.

On to `O=C1Nc2ncnc3c2/C1=C/Nc1ccc(c(F)c1)OCCCCCC(=O)N1CCN3CC1` [Compound 22], for which the IC50 in data set [1], in data set [2], in data set [3], in data set [4], in [5] and in data set [6] was greater than 10 µM in each case. The IC50 in data set [7], in [8], in [9], in data set [10], in [11] and in data set [12] was greater than 10 µM throughout. Besides, the IC50 in data set [13], in data set [14] and in data set [15] was greater than 10 µM throughout.

With `CN1CCCCCC(=O)N2CCN(CC2)c2ncnc3c2/C(=C/Nc2cccc(c2)C1)C(=O)N3` [Compound 24], the IC50 is greater than 10 µM in data set [1]; greater than 10 µM in data set [2]; greater than 10 µM in [3]; greater than 10 µM in data set [18]; greater than 10 µM in data set [4]; 1.51 µM in [5]. Moreover, the IC50 in [6], in data set [7], in [8], in data set [9], in data set [10] and in data set [11] was greater than 10 µM throughout. For the same compound, the IC50 in data set [19], in data set [12], in data set [13] and in [15] was greater than 10 µM each time.
